Results taken from patent US11440931B2, “Crocins compounds and uses thereof” (Jinan University, priority 2016, dated 2022).

Tests used:
[1] = tested on: SH-SY5Y nerve cells; assay: L-glutamic acid-damaged SH-SY5Y cell model (MTT); type: cell-based; conditions: summary in words
Protocol: (§1) 2.1 Method for Culturing SH-SY5Y Nerve Cells
(§2) The SH-SY5Y nerve cells were cultured in a DMEM culture medium (containing 5% of fetal calf serum in volume fraction) in an incubator containing 5% CO2 at 37° C., while subculturing every 3 to 4 days. Cells in a logarithmic phase were selected for experiments.
2.3 Method for Screening with L-Glutamic Acid-Damaged Models
SH-SY5Y cells were inoculated at a concentration of 5×10^3 in a 96-well plate, and then cultured for 24 h, and 100 μL of a liquid culture medium containing L-glutamic acid and a crocin-like compound was added to a 96-well plate, such that a final concentration of L-glutamic acid was 160 mM and a final medication concentration of the crocin-like compound was 10 μM, 1 μM, 0.1 μM, with each concentration in triplicate, followed by culturing for 24 h. After 24 h, a supernatant was sucked out and discarded, to each well was added 100 μL of MTT (0.5 mg/mL), followed by incubation for 4 h. A supernatant was sucked out and discarded, to each well was added 150 μL of DMSO, followed by shaking for 10 min, and a wavelength of 570 nm was selected to measure a value of absorbancy on a microplate reader^[13]. (Effective rate %=(ODcrocin-like compound−ODmodel)/(ODcontrol−ODmodel)*100).

[2] = tested on: SH-SY5Y nerve cells; assay: Hydrogen peroxide-damaged SH-SY5Y cell model (MTT); type: cell-based; conditions: summary in words
Protocol: as §1, §2
2.2 Method for Screening with Hydrogen Peroxide-Damaged Models
SH-SY5Y cells were inoculated at a concentration of 5×10^3 in a 96-well plate, and then cultured for 24 h, and 100 μL of a liquid culture medium containing H2O2 and a crocin-like compound was added to the 96-well plate, such that a final concentration of H2O2 was 400 μM and a final concentration of the crocin-like compound was 10 μM, 1 μM, 0.1 μM, with each concentration in triplicate, followed by culturing for 24 h. After 24 h, a supernatant was sucked out and discarded, and to each well was added 100 μL of MTT (0.5 mg/mL), followed by incubation for 4 h. A supernatant was sucked out and discarded, to each well was added 150 μL of DMSO, followed by shaking for 10 min, and a wavelength of 570 nm was selected to measure a value of absorbancy on a microplate reader^[12]. (Effective rate %=(ODcrocin-like compound−ODmodel)/(ODcontrol−ODmodel)*100).

[3] = tested on: PC-12 cells; conditions: antioxidant effect (GSH increase, inhibition of peroxidized lipid, SOD retained); cited from earlier work

SMILES | protection effect on SY5Y cell damage models induced by L-glutamic acid [1] | protection effect on SY5Y cell damage models induced by H2O2 [2] | protective effect on PC-12 cells [3]
CC(/C=C/C=C(\C)C(=O)O)=C\C=C\C=C(C)\C=C\C=C(/C)C(=O)O[C@@H]1OC(CO[C@@H]2OC[C@@H](O)C(O)C2O)[C@@H](O)C(O)C1O (stereo partly shown) [GJ-10, neocrocin J] | more excellent protection effects | more excellent protection effects | 
COc1cc(/C=C/C(=O)OCC2O[C@@H](OCC3O[C@@H](OC(=O)/C(C)=C/C=C/C(C)=C/C=C/C=C(C)/C=C/C=C(\C)C(=O)O)C(O)C(O)[C@@H]3O)C(O)C(O)[C@@H]2O)cc(OC)c1O (stereo partly shown) [GJ-7, neocrocin F] | more excellent protection effects |  | 
COc1cc(/C=C/C(=O)OCC2O[C@@H](OCC3O[C@@H](OC(=O)/C(C)=C/C=C/C(C)=C/C=C/C=C(C)/C=C/C=C(\C)C(=O)O[C@@H]4OC(CO[C@@H]5OC(CO)[C@@H](O)C(O)C5O)[C@@H](O)C(O)C4O)C(O)C(O)[C@@H]3O)C(O)C(O)[C@@H]2O)cc(OC)c1O (stereo partly shown) [GJ-6, neocrocin G] | more excellent protection effects | more excellent protection effects | 
C\C(C=O)=C/C=C/C(C)=C/C=C/C=C(C)/C=C/C=C(\C)C(=O)O[C@@H]1OC(CO[C@@H]2OC(CO)[C@@H](O)C(O)C2O)[C@@H](O)C(O)C1O (stereo partly shown) [GJ-9, neocrocin I] | more excellent protection effects |  | 
CC(/C=C/C=C(\C)C(=O)O[C@@H]1O[C@H](CO[C@@H]2O[C@H](CO)[C@@H](O)[C@H](O)[C@H]2O)[C@@H](O)[C@H](O)[C@H]1O)=C\C=C\C=C(C)\C=C\C=C(/C)C(=O)O[C@@H]1O[C@H](CO[C@@H]2O[C@H](CO)[C@@H](O)[C@H](O)[C@H]2O)[C@@H](O)[C@H](O)[C@H]1O [crocin-1, crocin digentiobioside] |  |  | protective effect on PC-12 cells
CCOC(=O)/C(C)=C/C=C/C(C)=C/C=C/C=C(C)/C=C/C=C(\C)C(=O)O[C@@H]1O[C@H](CO[C@@H]2O[C@H](CO)[C@@H](O)[C@H](O)[C@H]2O)[C@@H](O)[C@H](O)[C@H]1O [GJ-8, neocrocin H] | more excellent protection effects | more excellent protection effects | 
CC(/C=C/C=C(\C)C(=O)O[C@@H]1OC(CO[C@@H]2OC(CO)[C@@H](O)C(O)C2O)[C@@H](O)C(O)C1O)=C\C=C\C=C(C)\C=C\C=C(/C)C(=O)O[C@@H]1[C@@H](O)C[C@](O)(C(=O)O)C[C@H]1OC(=O)/C=C/c1ccc(O)c(O)c1 (stereo in doubt) [GJ-1, neocrocin B] | more excellent protection effects |  | 
